Experimental data taken from patent US20080249034A1, “Use of Macrolides for Treating Intestinal Inflammation” (ZAMBON S.P.A., priority 2005, published 2008).

Tested on: DNBS-induced colitis
Assay: DNBS-induced colitis in rats, macroscopic damage score
Format: in vivo, rat
Conditions: Sprague-Dawley rats, intrarectal DNBS on day 2, DNBS group score 10.7±0.4
Method: Albino male Sprague-Dawley rats, 200-250 g body weight, were treated with intrarectal DNBS (2,4-dinitrobenzensufonic acid, 30 mg in 0.25 ml of 50% ethanol) under a light anaesthesia with diethyl ether. In control experiments, the animals received 0.25 ml of saline (NaCl 0.9%). Animals were subjected to subsequent experimental procedures 6 days after induction of colitis with DNBS (Blandizzi et al., Altered prejunctional modulation of intestinal cholinergic and noradrenergic pathways by alpha-2-adrenoceptors in the presence of experimental colitis. Br J Pharmacol 139, 309-320, 2003). […]
At the end of treatments, animals were sacrificed and the severity of colonic inflammation was macroscopically evaluated in accordance with the criteria previously reported by Wallace and Keenan (Wallace J L and Keenan C M, An orally active inhibitor of leukotriene synthesis accelerates healing in a rat model of colitis. Am J Physiol, 258, G527-G534, 1990) with minor modifications (Blandizzi, et al., 2003). Briefly, the macroscopic evaluation is based on the following criteria: presence of adhesions between the colon and other intra-abdominal organs; consistency of colonic faecal material (as an indirect marker of diarrhea); thickening of the colonic wall; presence and extension of hyperemia and macroscopic mucosal damage (assessed with the aid of a ruler) (FIG. 2). […]

CC[C@H]1OC(=O)[C@H](C)[C@@H](O)[C@H](C)[C@@H](O[C@@H]2O[C@H](C)C[C@H](N(C)C(C)=O)[C@H]2O)C(C)(O)C[C@@H](C)[C@H](O)[C@H](C)[C@@H](O)[C@]1(C)O (some centres unmarked) [macrolide]
anti-inflammatory effect (change of macroscopic damage score) (100 μmol/kg/day by intragastric gavage for 7 days): −24%
anti-inflammatory effect (change of macroscopic damage score) (300 μmol/kg/day by intragastric gavage for 7 days): −51%
